US11130778B2, “CD73 inhibitors” (ORIC Pharmaceuticals, Inc., priority 2019, dated 2021)

Biological target: T1, CD73 (Homo sapiens, UniProt P21589)
T1 sequence (P21589 27-549): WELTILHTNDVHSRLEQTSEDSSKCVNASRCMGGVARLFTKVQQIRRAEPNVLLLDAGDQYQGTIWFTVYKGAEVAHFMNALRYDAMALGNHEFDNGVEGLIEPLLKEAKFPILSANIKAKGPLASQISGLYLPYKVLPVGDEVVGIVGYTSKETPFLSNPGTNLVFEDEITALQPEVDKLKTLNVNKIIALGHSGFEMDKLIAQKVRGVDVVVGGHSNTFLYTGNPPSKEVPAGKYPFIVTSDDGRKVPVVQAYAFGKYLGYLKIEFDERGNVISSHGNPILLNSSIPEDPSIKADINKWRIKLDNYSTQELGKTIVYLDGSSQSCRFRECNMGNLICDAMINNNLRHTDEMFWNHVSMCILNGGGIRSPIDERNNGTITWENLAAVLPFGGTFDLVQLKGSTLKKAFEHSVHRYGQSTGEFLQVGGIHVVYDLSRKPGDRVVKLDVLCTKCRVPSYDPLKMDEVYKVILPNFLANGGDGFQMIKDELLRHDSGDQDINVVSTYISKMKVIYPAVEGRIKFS
Assay: Biochemical assay of CD73 inhibition (Malachite Green)
Settings: CD73 0.3208 nM, AMP 15 μM, Tris-HCl pH 7.4, Malachite Green absorbance readout; read-out: CD73_Biochem
Outline: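 CD73 (0.3208 nM) preincubated with compound 15 min at RT in 25 mM Tris-HCl pH 7.4, 5 mM MgCl2, 0.01% Brij-35, 0.01% BSA, then AMP (15 μM) added for 10 min at RT. Released phosphate detected by Malachite Green absorbance. IC50 from 10-point ½-log titrations starting at 100 μM, in duplicate.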

## COC[C@](CC(=O)NO)(OC[C@H]1O[C@@H](n2ncc3c(NC4CCCC4)nc(Cl)nc32)[C@H](O)[C@@H]1O)P(=O)(O)O [Example 8, ((R)-2-(((2R,3S,4R,5R)-5-(6-chloro-4-(cyclopentylamino)-1H-pyrazolo[3,4-d]pyrimidin-1-yl)-3,4-dihydroxytetrahydrofuran-2-yl)methoxy)-4-(hydroxyamino)-1-methoxy-4-oxobutan-2-yl)phosphonic acid]
  IC50: ≤ 10 nM

## CC(Cc1nn[nH]n1)(OC[C@H]1O[C@@H](n2ncc3c(NC4CCCC4)nc(Cl)nc32)[C@H](O)[C@@H]1O)P(=O)(O)O (stereo partly drawn) [Example 43, (2-(((2R,3S,4R,5R)-5-(6-chloro-4-(cyclopentylamino)-1H-pyrazolo[3,4-d]pyrimidin-1-yl)-3,4-dihydroxytetrahydrofuran-2-yl)methoxy)-1-(2H-tetrazol-5-yl)propan-2-yl)phosphonic acid]
  IC50: ≤ 10 nM

## O=P(O)(O)[C@@](CO)(Cc1nn[nH]n1)OC[C@H]1O[C@@H](n2ncc3c(N[C@@H]4CCc5ccccc54)nc(Cl)nc32)[C@H](O)[C@@H]1O [Example 48, ((R)-2-(((2R,3S,4R,5R)-5-(6-chloro-4-(((R)-2,3-dihydro-1H-inden-1-yl)amino)-1H-pyrazolo[3,4-d]pyrimidin-1-yl)-3,4-dihydroxytetrahydrofuran-2-yl)methoxy)-1-hydroxy-3-(2H-tetrazol-5-yl)propan-2-yl)phosphonic acid]
  IC50: ≤ 10 nM

## COCC(CC(=O)NS(C)(=O)=O)(OC[C@H]1O[C@@H](n2ncc3c(NC4CCCC4)nc(Cl)nc32)[C@H](O)[C@@H]1O)P(=O)(O)O (stereo partly drawn) [Example 12, (2-(((2R,3S,4R,5R)-5-(6-chloro-4-(cyclopentylamino)-1H-pyrazolo[3,4-d]pyrimidin-1-yl)-3,4-dihydroxytetrahydrofuran-2-yl)methoxy)-1-methoxy-4-(methylsulfonamido)-4-oxobutan-2-yl)phosphonic acid]
  IC50: ≤ 10 nM
